# Test results published in US5942248A, “Pharmaceutical composition containing a low detergent effect bile salt and an active compound that undergoes biliary excretion and/or enterohepatic recycling” (priority 1992, dated 1999).
# Read-outs that look alike come from different tables or passages of the source.
# Tests used:
# [1] = cited from earlier work
# gastrointestinal mucosa = settings: in vivo; cited from earlier work
# [2] = tested on: isolated perfused rat liver; settings: cited from earlier work
# [3] = Stability of indomethacin in stored plasma samples; type: physicochemical; settings: -20° C.
# Protocol: The medication was taken with approx. 250 ml of boiled tap water. The zero time blood samples were taken within a 5 min period preceding the administration of the medication. Subsequent samples were taken at 0.5, 1.0, 1.5, 2.0, 2.5, 3.0, 4.0, 6.0, 8.0, 10.0 and 12.0 h. Blood samples were collected into lithium heparin tubes, gently mixed and centrifuged at 2.0×10^3 g.min within 15min of collection. Separated plasma was transferred into a clean tube and stored at -20° C. After a one week interval, the subjects received the alternative medication and the blood sampling protocol was repeated. Plasma samples were analysed by the HPLC method described by S. K. Cole et al (1992) Int. J. Pharm. 80, 63-73.
# [4] = pH 7.3 buffer, 37° C.; cited from earlier work
# [5] = cited from earlier work; remark: listed apart in the source
# [6] = cited from earlier work; remark: listed apart in the source
# [7] = aqueous solution; cited from earlier work
# [8] = tested on: isolated perfused rat liver; settings: cited from earlier work; remark: listed apart in the source
# [9] = tested on: isolated human hepatocytes; settings: cited from earlier work
# [10] = tested on: subjects receiving gallstone dissolution therapy; settings: rather than chenodeoxycholate; cited from earlier work
# rats = settings: induced by more detergent dihydroxy and trihydroxy bile acids; cited from earlier work
# patients = settings: chronic active hepatitis, primary biliary cirrhosis, cystic fibrosis; cited from earlier work
# [11] = tested on: heart transplant patients; settings: cyclosporine-induced cholestasis; cited from earlier work
# human erythrocytes = settings: cited from earlier work
# [12] = tested on: mono-layer cultures of isolated rat hepatocytes; settings: cited from earlier work
structure (smiles),measurement,setting,value
CC1(C)S[C@@H]2[C@H](NC(=O)[C@H](N)c3ccccc3)C(=O)N2[C@H]1C(=O)O [ampicillin],biliary excretion with exogenously added bile acids,[1]; variety of animal species,increased the biliary excretion
CC(=O)Oc1ccccc1C(=O)O [aspirin],gastrointestinal bleeding / lesions,gastrointestinal mucosa,gastrointestinal bleeding
C=CC1=C(C)/C(=C/c2[nH]c(Cc3[nH]c(/C=C4\NC(=O)C(C)=C4C=C)c(C)c3CCC(=O)O)c(CCC(=O)O)c2C)NC1=O [bilirubin],biliary excretion with exogenously added bile acids,[1]; in vivo,increased the biliary excretion
O=C1OC(c2ccc(O)c(S(=O)(=O)O)c2)(c2ccc(O)c(S(=O)(=O)O)c2)c2c(Br)c(Br)c(Br)c(Br)c21 [bromosulphthalein],biliary excretion with exogenously added bile acids,[1]; variety of animal species,increased the biliary excretion
CN(C)CCCN1c2ccccc2Sc2ccc(Cl)cc21 [chlorpromiazine],cholestasis caused,[2],drug-induced cholestasis
C[C@]12CC[C@@H]3c4ccc(O)cc4CC[C@H]3[C@@H]1CC[C@@H]2O[C@@H]1O[C@H](C(=O)O)[C@@H](O)[C@H](O)[C@H]1O [estradiol-17-β-D-glucaronide],cholestasis caused,[2],drug-induced cholestasis
CC1(C)C(/C=C/C=C/C=C/C=C2\N(CCCCS(=O)(=O)O)c3ccc4ccccc4c3C2(C)C)=[N+](CCCCS(=O)(=O)[O-])c2ccc3ccccc3c21 [indocyamine green],biliary excretion with exogenously added bile acids,[1]; variety of animal species,increased the biliary excretion
COc1ccc2c(c1)c(CC(=O)O)c(C)n2C(=O)c1ccc(Cl)cc1 [indomethacin],degradation of indomethacin in stored plasma,[3],No degradation of indomethacin was detected
same,dissolution in presence of sodium deoxycholate and sodium cholate,[4],enhance the dissolution
same,biliary clearance / enterohepatic circulation (in words),[5]; in vivo,Extensive clearance of intact indomethacin into the bile
same,plasma clearance,[5]; in vivo,low plasma clearance
same,plasma half-life,[5]; in vivo,short plasma half-life
same,route of excretion,[5]; in vivo,mainly excreted via the hepato-biliaryroute
same,volume distribution,[5]; in vivo,low volume distribution
same,extent of enterohepatic recycling,[5]; man and animals,21-41%
same,absorption rate in vivo with bile acids,[6],did not translate into an enhanced absorption rate in vivo
same,bioavailability with exogenously added bile acids,[6]; in vivo,increased the bioavailability of indomethacin
same,inter-subject variation with exogenously added bile acids,[6]; in vivo,decreasing inter-subject variation
CCC(Cc1c(I)cc(I)c(N)c1I)C(=O)O (centres unmarked) [iopanoic acid],biliary excretion with exogenously added bile acids,[1]; in vivo,increased the biliary excretion
CCCCC1C(=O)N(c2ccccc2)N(c2ccccc2)C1=O [phenylbutazone],dissolution in presence of sodium deoxycholate and sodium cholate,[4],enhance the dissolution
CN1C(C(=O)Nc2ccccn2)=C(O)c2ccccc2S1(=O)=O [piroxicam],gastrointestinal bleeding / lesions,gastrointestinal mucosa,gastrointestinal bleeding
"C[C@H](CCC(=O)O)[C@H]1CC[C@H]2[C@@H]3[C@@H](O)C[C@@H]4C[C@H](O)CC[C@]4(C)[C@H]3CC[C@]12C [ursodeoxycholate, Ursodeoxycholate]",CMC,[7],1 to 3 mM
same,detergent effect in isolated perfused rat liver,[8],lack of detergent effect
same,detergent effect in isolated human hepatocytes,[9],lack of detergent effect
same,gastrointestinal side-effects,[10],decreased incidence of gastrointestinal side-effects
same,hepatic enzyme levels in plasma,[10],lower hepatic intracellar enzyme levels
same,biliary excretion of membrane enzymes,rats,reduces the biliary excretion of membrane enzymes
same,measures of hepatic damage,patients,reverse measures of hepatic damage
same,plasma levels of liver enzymes and bilirubin,[11],reverse the elevated plasma levels of liver enzymes and bilirubin
same,prevention of toxicological effects of more detergent bile acids,human erythrocytes,prevent the toxicological effects of more detergent bile acids
same,prevention of toxicological effects of more detergent bile acids,[12],prevent the toxicological effects of more detergent bile acids
same,reversal of drug-induced cholestasis,[2]; caused by estradiol-17-β-D-glaucaronide and chlorpromazine,reverse drug-induced cholestasis
